Results taken from patent publication US8426406B2, “Glucocorticoid receptor agonist comprising 2,2,4-trimethyl-6-phenyl-1,2-dihydroquinoline derivatives having substituted oxy group” (Santen Pharmaceutical Co., Ltd., priority 2008, dated 2013).

Experiments:
Assay type in all cases: in vivo
[1] = system: atopic dermatitis model in mice; test: Inhibitory effect test on the vascular hyper-permeability in the atopic dermatitis model; details: DNFB, 1% (W/W) test compound ointment on ears, 21 times in total, dye leakage vs vehicle, 12 ears in 6 animals
Procedure: In order to evaluate the effects in atopic dermatitis of the present compound, the inhibitory effects of test compound on the vascular hyper-permeability in the atopic dermatitis model in mice were investigated. Procedure of atopic dermatitis model and estimation method was used according to the method of Nagai et al. (J. Pharmacol. Exp. Ther., 283: 321-327 (1997)) with modification. The inhibitory effects were calculated based on dye leakage in vehicle-treated group (control) and test compound-treated group.
The test compound was mixed with white petrolatum, whereby a 1% (W/W) test compound ointment was prepared.
1) Mice were challenged by topical instillation of 25 μL of 0.15% DNFB solution on both sides of both ears once a week for 5 weeks.
2) Test compounds were administered by topical instillation of 25 μL ointments on each side of both ears five times a week from the previous day of the 1st DNFB painting to the previous day of 5th DNFB painting, 21 times in total. Mice were painted with the test compound ointment onto the ear, 25 μL to the inner and 25 μL to outer side. In vehicle-treated group (control group), white petrolatum was administered by topical instillation in the same way.
3) Dyes, a solution of 0.2% Evans blue, were administered to mice intravenously just after the 5th DNFB painting. Ear tissues were removed 2 hours after the intravenous injection of dyes. Then each removed tissue was put into dye extract and dye was extracted. The absorbance of each extract was determined with a spectrophotometer. The amount of dye leakage was calculated from obtained absorbance. The inhibition ratio of the vascular hyper-permeability associated with atopic dermatitis of test compound-treatment group was calculated according to the following equation 1. The inhibition ratio of the vascular hyper-permeability of test compound-treatment group(%)=(1−Ax/Ao)×100 (Calculation Equation 1) Ao: the amount of dye leakage in vehicle-treated group (Control) Ax: the amount of dye leakage in test compound-treated group (Result and Discussion)

[2] = system: allergic conjunctivitis model in mice; test: Inhibitory effect on the vascular hyper-permeability in allergic conjunctivitis model; details: Mus musculus, 1% (W/V) test compound suspension instilled to the right eye three times before ovalbumin instillation, dye leakage vs vehicle, mean of 5-6 eyes, read-out: The inhibition ratio of the vascular hyper-permeability (%)
Procedure: In order to evaluate anti-allergic effect, inhibitory effect on the vascular hyper-permeability in allergic conjunctivitis model in mice was examined. This effect was calculated based on dye leakages of vehicle-treated group (control group) and test compound-treated group.
By adding 0.5% polysorbate 80/saline to the test compound, a 1% (W/V) test compound suspension was prepared.
1) Ovalbumin absorbed on aluminum hydroxide gel was dissolved in saline (20 μg ovalbumin/mL), and male BALE/c mice, 6 weeks old, were actively sensitized to the antigen by intraperitoneal injections of 500 μL of it.
2) On the 6th day from sensitization, sensitized mice were boosted by additional intraperitoneal injections of 500 μL ovalbumin absorbed on aluminum hydroxide gel (20 μg ovalbumin/mL).
3) On the 11th day, 12th day, 13th day, 14th day and 15th day from the first sensitization, allergic conjunctivitis were induced by installations to the right eyes of the mice of […] of 50% glycerol solution containing 15% (W/V) ovalbumin.
4) […] of test compound suspension per eye was instilled to the right eye of the above mice 15 min, 1 hr and 3 hrs before ovalbumin instillation (three times) on the 15th day from sensitization. In vehicle-treated group (control group), the mice were instilled with 0.5% polysorbate 80/saline in substitution for test compound suspension.
5) Just before ovalbumin instillation on the 15th day from sensitization, all animals received a tail intravenous injection of 0.1% Evans blue dye. The right periocular tissues of the mice, which were the leaked parts of dye, were collected 30 min after ovalbumin instillation. The dye was extracted from the tissues with the dye extraction liquid. Then the absorbance of the dye extract was measured. The dye leakage was calculated from the absorbance value, and the inhibition ratio of the vascular hyper-permeability of test compound-treated group was calculated according to calculation equation 1. The inhibition ratio of the vascular hyper-permeability of test compound-treated group(%)=(1−Ax/Ao)×100 (Calculation Equation 1) Ao: Dye leakage in vehicle-treated group (control group) Ax: Dye leakage in test compound-treated group (Test Results and Discussion)

[3] = system: corneal disorder model in rats; test: Test for therapeutic effects on corneal disorder (corneal disorder model associated with dry eye); details: male SD rats, exorbital lacrimal gland removed; 0.03% (W/V) ophthalmic suspension instilled 6 times a day for 14 days; fluorescein staining score; 8 eyes in 4 animals
Procedure: In order to evaluate the improvement effect of corneal disorder with dry eye of the present compounds, using male SD rats, corneal disorder models were produced according to the method of Fujihara et al. (Invest. Ophthalmol. Vis. Sci. 42 (1): 96-100 (2001)). After the production of the corneal disorder models, the improvement ratio of the corneal disorder was assessed according to the method of Murakami et al. (Journal of the eye 21 (1): 87-90 (2004)).
A 0.03% (W/V) test compound ophthalmic suspension was prepared by adding vehicle containing polysorbate 80 and the general additives to test compound.
1) Male SD rats were systemically anesthetized by an administration of Somnopentyl. Subsequently the exorbital lacrimal gland of each rat was removed and a corneal damage was induced over a period of 2 months.
2) The test compound ophthalmic suspension was instilled into both eyes 6 times a day for 14 days. In a control group, vehicle was instilled in the same way.
3) Fourteen days after the start of instillation, the damaged parts of the cornea were stained with fluorescein. For each of the upper, middle and lower parts of the cornea, the degree of fluorescein staining was evaluated by scoring according to the criteria shown below and the mean value of the total scores for each of the above-mentioned parts was calculated. The score range in each divided section is 0 to 3 and the minimum score unit is 0.5. 0.5 was provided as an intermediate value between each score 0, 1, 2, 3.
1: Scattered staining (each punctate staining being separated)
2: Moderate staining (a part of punctate staining being adjacent)
3: Heavy staining (each punctate staining being adjacent) Improvement ratio of test compound instillation group(%)=(Ao−Ax)/(Ao−An)×100 (Calculation Equation)
Ao: the mean value of corneal disorder score in vehicle instilled (control) group
Ax: the mean value of corneal disorder score in test compound instilled group
An: the mean value of corneal disorder score in normal rat group.

Structure (SMILES)	Inhibition ratio of the vascular hyper-permeability (%) [1]	inhibition in vivo at 10000 µg/mL [2]	Improvement ratio of corneal disorder (%) [3]
CCCS(=O)(=O)Oc1ccc(-c2ccc3c(c2CNc2ccccc2OC)C(C)=CC(C)(C)N3)c(OC)c1 [Compound 4-18, 5-(2-Methoxyphenylaminomethyl)-6-(2-methoxy-4-propylsulfonyloxyphenyl)-2,2,4-trimethyl-1,2-dihydroquinoline]	30%	21%	56%
COc1cc(OC(=O)c2ccco2)ccc1-c1ccc2c(c1COc1cc(F)ccc1C)C(C)=CC(C)(C)N2 [Compound 1-13, 5-(5-Fluoro-2-methylphenoxymethyl)-6-[4-(furan-2-ylcarbonyloxy)-2-methoxyphenyl]-2,2,4-trimethyl-1,2-dihydroquinoline]	13%	24%	61%
COc1cc(OC(=O)c2ccsc2)ccc1-c1ccc2c(c1COc1cc(F)ccc1C)C(C)=CC(C)(C)N2 [Compound 1-12, 5-(5-Fluoro-2-methylphenoxymethyl)-6-[2-methoxy-4-(thiophen-3-ylcarbonyloxy)phenyl]-2,2,4-trimethyl-1,2-dihydroquinoline]	22%	17%	69%
COc1cc(OC(=O)c2cccnc2)ccc1-c1ccc2c(c1COc1cc([N+](=O)[O-])ccc1C)C(C)=CC(C)(C)N2 [Compound 1-72, 6-[2-Methoxy-4-(pyridin-3-ylcarbonyloxy)phenyl]-5-(2-methyl-5-nitrophenoxymethyl)-2,2,4-trimethyl-1,2-dihydroquinoline]	15%	21%	67%
